# Patent publication US20100292188A1, “Compounds Comprising A Cyclobutoxy Group” (UCB PHARMA S.A., priority 2008, published 2010)
row,Compound,melting point [°C]
1,"COCC(=O)N1CCc2nc(-c3ccc(O[C@H]4C[C@H](N5CCCCC5)C4)cc3)sc2C1 [Compound 2, 5-(methoxyacetyl)-2-{4-[(trans-3-piperidin-1-ylcyclobutyl)oxy]phenyl}-4,5,6,7-tetrahydro[1,3]thiazolo[5,4-c]pyridine]",128
2,"CC(C)(C)OC(=O)N1CCc2nc(-c3ccc(O[C@H]4C[C@H](N5CCCCC5)C4)cc3)sc2C1 [Compound 3, tert-butyl 2-{4-[(trans-3-piperidin-1-ylcyclobutyl)oxy]phenyl}-6,7-dihydro[1,3]thiazolo[5,4-c]pyridine-5(4H)-carboxylate]",162.3
3,"CC(=O)N1CCc2nc(-c3ccc(O[C@H]4C[C@H](N5CCCCC5)C4)cc3)sc2C1 [Compound 4, 5-acetyl-2-{4-[(trans-3-piperidin-1-ylcyclobutyl)oxy]phenyl}-4,5,6,7-tetrahydro[1,3]thiazolo[5,4-c]pyridine]",170.3
4,"c1cc(-c2nc3c(s2)CNCC3)ccc1O[C@H]1C[C@H](N2CCCCC2)C1 [Compound 5, 2-{4-[(trans-3-piperidin-1-ylcyclobutyl)oxy]phenyl}-4,5,6,7-tetrahydro[1,3]thiazolo[5,4-c]pyridine]",144.5
5,"O=C(N1CCOCC1)N1CCc2nc(-c3ccc(O[C@H]4C[C@H](N5CCCCC5)C4)cc3)sc2C1 [Compound 6, 5-(morpholin-4-ylcarbonyl)-2-{4-[(trans-3-piperidin-1-ylcyclobutyl)oxy]phenyl}-4,5,6,7-tetrahydro[1,3]thiazolo[5,4-c]pyridine]",149.3
6,"O=S(=O)(N1CCOCC1)N1CCc2nc(-c3ccc(O[C@H]4C[C@H](N5CCCCC5)C4)cc3)sc2C1 [Compound 7, 5-(morpholin-4-ylsulfonyl)-2-{4-[(trans-3-piperidin-1-ylcyclobutyl)oxy]phenyl}-4,5,6,7-tetrahydro[1,3]thiazolo[5,4-c]pyridine]",178
7,"CC(=O)N1CCc2nc(-c3ccc(O[C@H]4C[C@H](N5CCOCC5)C4)cc3)sc2C1 [Compound 8, 5-acetyl-2-{4-[(trans-3-morpholin-4-ylcyclobutyl)oxy]phenyl}-4,5,6,7-tetrahydro[1,3]thiazolo[5,4-c]pyridine]",161.6 to 162.2
8,"NCC(=O)N1CCc2nc(-c3ccc(O[C@H]4C[C@H](N5CCCCC5)C4)cc3)sc2C1 [Compound 9, 2-oxo-2-[2-{4-[(trans-3-piperidin-1-ylcyclobutyl)oxy]phenyl}-6,7-dihydro[1,3]thiazolo[5,4-c]pyridin-5(4H)-yl]ethanamine]",199
9,"NC(=O)N1CCc2nc(-c3ccc(O[C@H]4C[C@H](N5CCCCC5)C4)cc3)sc2C1 [Compound 10, 2-{4-[(trans-3-piperidin-1-ylcyclobutyl)oxy]phenyl}-6,7-dihydro[1,3]thiazolo[5,4-c]pyridine-5(4H)-carboxamide]",199
10,"O=C(CO)N1CCc2nc(-c3ccc(O[C@H]4C[C@H](N5CCCCC5)C4)cc3)sc2C1 [Compound 11, 2-oxo-2-[2-{4-[(trans-3-piperidin-1-ylcyclobutyl)oxy]phenyl}-6,7-dihydro[1,3]thiazolo[5,4-c]pyridin-5(4H)-yl]ethanol]",177
11,"CC(=O)N1CCc2nc(-c3ccc(O[C@H]4C[C@H](N5CCN(C(C)C)CC5)C4)cc3)sc2C1 [Compound 12, 5-acetyl-2-(4-{[trans-3-(4-isopropylpiperazin-1-yl)cyclobutyl]oxy}phenyl)-4,5,6,7-tetrahydro[1,3]thiazolo[5,4-c]pyridine]",109
12,"CC(=O)N1CCc2nc(-c3ccc(O[C@H]4C[C@H](N5CCC(F)(F)CC5)C4)cc3)sc2C1 [Compound 13, 5-acetyl-2-(4-{[trans-3-(4,4-difluoropiperidin-1-yl)cyclobutyl]oxy}phenyl)-4,5,6,7-tetrahydro[1,3]thiazolo[5,4-c]pyridine]",175
13,"OCC(O)CN1CCc2nc(-c3ccc(O[C@H]4C[C@H](N5CCCCC5)C4)cc3)sc2C1 (stereo partly drawn) [Compound 15, 3-[2-{4-[(trans-3-piperidin-1-ylcyclobutyl)oxy]phenyl}-6,7-dihydro[1,3]thiazolo[5,4-c]pyridin-5(4H)-yl]propane-1,2-diol]",169
14,"OC[C@@H](O)CN1CCc2nc(-c3ccc(O[C@H]4C[C@H](N5CCCCC5)C4)cc3)sc2C1 [Compound 16, (2S)-3-[2-{4-[(trans-3-piperidin-1-ylcyclobutyl)oxy]phenyl}-6,7-dihydro[1,3]thiazolo[5,4-c]pyridin-5(4H)-yl]propane-1,2-diol]",175
15,"OC[C@H](O)CN1CCc2nc(-c3ccc(O[C@H]4C[C@H](N5CCCCC5)C4)cc3)sc2C1 [Compound 17, (2R)-3-[2-{4-[(trans-3-piperidin-1-ylcyclobutyl)oxy]phenyl}-6,7-dihydro[1,3]thiazolo[5,4-c]pyridin-5(4H)-yl]propane-1,2-diol]",172
16,"NC(=O)CN1CCc2nc(-c3ccc(O[C@H]4C[C@H](N5CCCCC5)C4)cc3)sc2C1 [Compound 18, 2-[2-{4-[(trans-3-piperidin-1-ylcyclobutyl)oxy]phenyl}-6,7-dihydro[1,3]thiazolo[5,4-c]pyridin-5(4H)-yl]acetamide]",231

row,Compound,melting point [°C]
1,"CC(=O)N1CCc2nc(-c3ccc(O[C@H]4C[C@H](N5CCCCCC5)C4)cc3)sc2C1 [Compound 19, 5-acetyl-2-{4-[(trans-3-azepan-1-ylcyclobutyl)oxy]phenyl}-4,5,6,7-tetrahydro[1,3]thiazolo[5,4-c]pyridine]",135
2,"CCNC(=O)N1CCc2nc(-c3ccc(O[C@H]4C[C@H](N5CCCCC5)C4)cc3)sc2C1 [Compound 21, N-ethyl-2-{4-[(trans-3-piperidin-1-ylcyclobutyl)oxy]phenyl}-6,7-dihydro[1,3]thiazolo[5,4-c]pyridine-5(4H)-carboxamide]",200
3,"CC(=O)N1CCc2nc(-c3ccc(O[C@H]4C[C@H](N5CCSCC5)C4)cc3)sc2C1 [Compound 22, 5-acetyl-2-{4-[(trans-3-thiomorpholin-4-ylcyclobutyl)oxy]phenyl}-4,5,6,7-tetrahydro[1,3]thiazolo[5,4-c]pyridine]",196
4,"O[C@H]1C[C@@H](N2CCc3nc(-c4ccc(O[C@H]5C[C@H](N6CCCCC6)C5)cc4)sc3C2)C1 [Compound 24, cis-3-[2-{4-[(trans-3-piperidin-1-ylcyclobutyl)oxy]phenyl}-6,7-dihydro[1,3]thiazolo[5,4-c]pyridin-5(4H)-yl]cyclobutanol]",169
5,"NC(=O)CC(=O)N1CCc2nc(-c3ccc(O[C@H]4C[C@H](N5CCCCC5)C4)cc3)sc2C1 [Compound 25, 3-oxo-3-[2-{4-[(trans-3-piperidin-1-ylcyclobutyl)oxy]phenyl}-6,7-dihydro[1,3]thiazolo[5,4-c]pyridin-5(4H)-yl]propanamide]",176
6,"COC(=O)CN1CCc2nc(-c3ccc(O[C@H]4C[C@H](N5CCCCC5)C4)cc3)sc2C1 [Compound 26, methyl [2-{4-[(trans-3-piperidin-1-ylcyclobutyl)oxy]phenyl}-6,7-dihydro[1,3]thiazolo[5,4-c]pyridin-5(4H)-yl]acetate]",221
7,"CC(=O)N1CCc2oc(-c3ccc(O[C@H]4C[C@H](N5CCCCC5)C4)cc3)nc2C1 [Compound 28, 5-acetyl-2-{4-[(trans-3-piperidin-1-ylcyclobutyl)oxy]phenyl}-4,5,6,7-tetrahydro[1,3]oxazolo[4,5-c]pyridine]",141.9
8,"CC(=O)N1CCc2sc(-c3ccc(O[C@H]4C[C@H](N5CCCCC5)C4)cc3)nc2C1 [Compound 29, 5-acetyl-2-{4-[(trans-3-piperidin-1-ylcyclobutyl)oxy]phenyl}-4,5,6,7-tetrahydro[1,3]thiazolo[4,5-c]pyridine]",154.2
9,"CC(=O)N1CCCc2sc(-c3ccc(O[C@H]4C[C@H](N5CCCCC5)C4)cc3)nc21 [Compound 30, 4-acetyl-2-{4-[(trans-3-piperidin-1-ylcyclobutyl)oxy]phenyl}-4,5,6,7-tetrahydro[1,3]thiazolo[4,5-b]pyridine]",146
10,"CC(=O)N1CCCCc2nc(-c3ccc(O[C@H]4C[C@H](N5CCCCC5)C4)cc3)sc21 [Compound 31, 4-acetyl-2-{4-[(trans-3-piperidin-1-ylcyclobutyl)oxy]phenyl}-5,6,7,8-tetrahydro-4H-[1,3]thiazolo[5,4-b]azepine]",49
11,"c1cc2sc(-c3ccc(O[C@H]4C[C@H](N5CCCCC5)C4)cc3)nc2cn1 [Compound 32, 2-{4-[(trans-3-piperidin-1-ylcyclobutyl)oxy]phenyl}[1,3]thiazolo[4,5-c]pyridine]",65
12,"O=C(CC(F)(F)F)N1CCc2nc(-c3ccc(O[C@H]4C[C@H](N5CCCCC5)C4)cc3)sc2C1 [Compound 33, 2-{4-[(trans-3-piperidin-1-ylcyclobutyl)oxy]phenyl}-5-(3,3,3-trifluoropropanoyl)-4,5,6,7-tetrahydro[1,3]thiazolo[5,4-c]pyridine]",167 to 168
13,"Cc1n[nH]nc1C(=O)N1CCc2nc(-c3ccc(O[C@H]4C[C@H](N5CCCCC5)C4)cc3)sc2C1 [Compound 35, 5-[(5-methyl-2H-1,2,3-triazol-4-yl)carbonyl]-2-{4-[(trans-3-piperidin-1-ylcyclobutyl)oxy]phenyl}-4,5,6,7-tetrahydro[1,3]thiazolo[5,4-c]pyridine]",150 to 154
14,"CC(=O)N1CCc2nc(-c3ccc(O[C@H]4C[C@H](N5CCCCC5)C4)cc3F)sc2C1 [Compound 36, 5-acetyl-2-{2-fluoro-4-[(trans-3-piperidin-1-ylcyclobutyl)oxy]phenyl}-4,5,6,7-tetrahydro[1,3]thiazolo[5,4-c]pyridine]",142.8
15,"OCCN1CCc2nc(-c3ccc(O[C@H]4C[C@H](N5CCCCC5)C4)cc3)sc2C1 [Compound 37, 2-[2-{4-[(trans-3-piperidin-1-ylcyclobutyl)oxy]phenyl}-6,7-dihydro[1,3]thiazolo[5,4-c]pyridin-5(4H)-yl]ethanol]",142
16,"O=C(CCCN1CC[S+]([O-])CC1)N1CCc2nc(-c3ccc(O[C@H]4C[C@H](N5CCCCC5)C4)cc3)sc2C1 [Compound 41, 5-[4-(1-oxidothiomorpholin-4-yl)butanoyl]-2-{4-[(trans-3-piperidin-1-ylcyclobutyl)oxy]phenyl}-4,5,6,7-tetrahydro[1,3]thiazolo[5,4-c]pyridine]",165
